Patent US20060205716A1, “Microbicidal agents” (priority 2003, published 2006)

Columns and labels:
[1] = system: Pseudomonas fluorescens; experiment: Minimum inhibitory concentration / synergism test with test germ Pseudomonas fluorescens; assay type: cell-based; settings: pure active compound applied on its own
Description: The observed synergism of the mixtures according to the invention can be determined by the following mathematical approach (cf. F. C. Kull, P. C. Elisman, H. D. Sylwestrowicz and P. K. Mayer, Appl. Microbiol. 9, 538 (1961): [formula] where • Qa=the amount of component A in the active compound mixture required to achieve the desired effect, i.e. no microbial growth, • QA=the amount of component A which, applied on its own, suppresses the growth of the microorganisms, • Qb=the amount of component B in the active compound mixture which suppresses the growth of the microorganisms, and • […]=the amount of component B which, applied on its own, suppresses the growth of the microorganisms.
A synergistic index of SI<1, in accordance with the above formula, indicates a synergistic effect for the active compound mixture.
The minimum inhibitory concentration of the active compound combinations listed in Table 1 were examined using the test germ Pseudomonas fluorescens

[2] = system: moulds (Acremonium strictum, Fusarium solani, Geotrichum candidum); experiment: Preservation of a cooling lubricant emulsion, repeated weekly contamination: moulds; settings: limit <10^3-4 CFU/g, maximum test duration 10 weeks
Description: (§1) What was examined was the preserving action of CMC/MIT mixtures according to the invention in a cooling lubricant emulsion (5% mineral oil/emulsifier concentrate/95% water). To this end, biocide-free and perserved samples of a cooling lubricant emulsion were repeatedly, at weekly intervals, exposed to microbiological stress using the following microorganisms:
Moulds: • Acremonium strictum • Fusarium solani • Geotrichum candidum
(§2) In each case, the bacteria were added separately from the yeasts/moulds.
(§3) The maximum duration of the test was 10 weeks (=10 contaminations), if the following limits were not exceeded during the weekly determination of the number of germs:
(§4) yeasts/moulds<10^3-4 CFU/g.

[3] = system: bacteria (Pseudomonas aeruginosa, P. fluorescens, P. oleovorans, P. rubescens, P. stutzeri, Alcaligenes faecalis, Citrobacter freundii, Corynebacterium sp); experiment: Preservation of a cooling lubricant emulsion, repeated weekly contamination: bacteria; settings: limit <10^6 CFU/g, maximum test duration 10 weeks
Description: as §1
Bacteria: • Pseudomonas aeruginosa • Pseudomonas fluorescens • Pseudomonas oleovorans • Pseudomonas rubescens • Pseudomonas stutzeri • Alcaligenes faecalis • Citrobacter freundii • Corynebacterium sp
as §2
The maximum duration of the test was 10 weeks (=10 contaminations), if the following limits were not exceeded during the weekly determination of the number of germs: […]

[4] = system: yeasts (Rhodotorula rubra); experiment: Preservation of a cooling lubricant emulsion, repeated weekly contamination: yeasts; settings: limit <10^3-4 CFU/g, maximum test duration 10 weeks
Description: as §1
Yeasts: • Rhodotorula rubra
as §2, §3, §4

[5] = 0.01% MIT based on cooling lubricant emulsion
[6] = 0.15% CMC based on cooling lubricant emulsion

| SMILES | Amount of pure active compounds required to suppress growth (QA, QB) [1] | number of weeks without colonization: moulds [2, 5] [weeks] | number of weeks without colonization: bacteria [3, 5] [weeks] | number of weeks without colonization: yeasts [4, 5] [weeks] | number of weeks without colonization: moulds [2, 6] [weeks] | number of weeks without colonization: bacteria [3, 6] [weeks] | number of weeks without colonization: yeasts [4, 6] [weeks] |
| --- | --- | --- | --- | --- | --- | --- | --- |
| Cn1sccc1=O [MIT, 2-methyl-2H-isothiazol-3-one] | 5 (QB) ppm | 5 | 8 | 8 | – | – | – |
| Cc1cc(O)ccc1Cl [CMC, p-chloro-m-cresol] | 150 (QA) ppm | – | – | – | 10 | 3 | 10 |
